# Patent US9388175B2, “2-aniline-4-aryl substituted thiazole derivatives” (Janssen Pharmaceutica N.V., priority 2005, dated 2016)
# Molecular target: T1, hα7-wt nAChR stably expressed in the GH4C1 cell line (Homo sapiens, UniProt P36544)
# T1 construct: expressed in transfected cells
# Test: Ca2+ flux imaging (FLIPR) of PAM activity with choline as agonist
# Type: cell-based
# Conditions: efficacy relative to 100 μM choline alone (defined as 1); peak fluorescence, fluo-4AM; compounds tested 0.1 μM to 30 μM, efficacy criterion at 10 μM
# Excerpt: Stable expression in mammalian cells in general and rat GH4C1 cells in particular, of cDNA clones encoding the human α7 wild-type sequence (hα7-wt nAChR) and in which the coding region is placed downstream of a promoter results in the appearance of functional α7 nAChRs on the surface of the mammalian cells. This technique has provided a powerful means of assessing the function of α7 wild-type protein. Given the fact that the cation permeability of the α7 nicotinic receptor preferentially favours calcium, fluorescent imaging of Ca^2+ flux through the hα7-wt nAChR stably expressed in the GH4C1 cell line was used as a first means of assaying modulator activity of the compounds of the present invention.
# a) Assay Buffer • Hanks buffered saline solution (HBSS, Invitrogen, Belgium), supplemented with 10 mM HEPES (Invitrogen, Belgium), CaCl2 to a final concentration of 5 mM, 0.1% Bovine serum albumin (Sigma-Aldrich NV, Belgium), 2.5 mM probenecid (Sigma-Aldrich NV, Belgium).
# b) Calcium-Sensitive Dye—Fluo-4AM • Fluo-4AM (Molecular Probes, USA) was dissolved in DMSO containing 10% Pluronic acid (Molecular Probes, USA) to give a stock solution which was aliquoted and could be stored at −20° C. until later use. On the day of the experiment Fluo-4AM stock was defrosted and diluted in DMEM/F12 (Invitrogen, Belgium) containing 2.5 mM probenicid and 0.1% BSA to give a final concentration of 2 μM.
# c) 96-well Plates • BD Biocoat poly-D-lysine 96-well black/clear bottom plates (BD Biosciences, Belgium)
# d) Calcium Flux Measurement • A Fluorimetric Imaging Plate Reader (FLIPR, Molecular Devices Corporation, Sunnyvale, USA) was used to measure intracellular free-calcium flux signals
# Monolayers of hα7-wt nAChR-expressing cells were grown in multi-well plates, in particular black-sided, transparent bottomed 96 well plates coated with poly-D-lysine for 24 hours prior to loading with a fluorescent calcium indicator, in a particular embodiment loading with fluo-3 or fluo-4AM for up to 90 minutes, in an even more particular embodiment loading with fluo-4AM for up to 90 minutes, and in a preferred embodiment loading with fluo-4AM for 60 minutes.
# In a particular embodiment, the α7 nicotinic receptor agonist was choline, a more particular embodiment choline applied at a sub-maximal concentration of 100 μM.
# A control response to choline was calculated on each plate from the difference in peak fluorescence in wells receiving either choline or assay buffer alone. Compounds of the present invention were tested at a concentration range from 0.1 μM to 30 μM.
# The activity ranges are defined as follows; A denotes an activity range from 1.1 till 1.5, B denotes an activity range from 1.5 till 2.0, C denotes an activity range from 2.0 till 3.0, D denotes an activity range from 3.0 till 4.5 and E denotes an efficacy from at least 4.5.
# T1 sequence (P36544 23-502): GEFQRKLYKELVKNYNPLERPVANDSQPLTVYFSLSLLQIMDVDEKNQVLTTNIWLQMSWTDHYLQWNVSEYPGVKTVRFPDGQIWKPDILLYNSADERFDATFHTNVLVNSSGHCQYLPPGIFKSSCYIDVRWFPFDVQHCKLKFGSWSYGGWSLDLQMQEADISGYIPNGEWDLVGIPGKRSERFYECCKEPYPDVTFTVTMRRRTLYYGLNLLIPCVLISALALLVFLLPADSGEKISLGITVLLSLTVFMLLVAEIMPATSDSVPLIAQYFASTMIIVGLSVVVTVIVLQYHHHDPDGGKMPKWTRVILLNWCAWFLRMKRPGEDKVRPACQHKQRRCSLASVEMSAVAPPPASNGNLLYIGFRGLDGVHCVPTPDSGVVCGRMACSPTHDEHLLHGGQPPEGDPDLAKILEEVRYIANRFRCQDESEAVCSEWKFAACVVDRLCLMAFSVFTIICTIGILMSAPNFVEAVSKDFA
row,Compound,Activity Range
1,OCc1sc(Nc2ccc(Cl)cc2Cl)nc1-c1ccccc1 [Compound 3],D (D denotes an activity range from 3.0 till 4.5)
2,"CC(=O)NCc1sc(Nc2cccc(C(F)(F)F)c2)nc1-c1cccnc1 [Compound 4, N-[4-Pyridin-3-yl-2-(3-trifluoromethyl-phenylamino)-thiazol-5-ylmethyl]-acetamide]",D (D denotes an activity range from 3.0 till 4.5)
3,Fc1cncc(-c2csc(Nc3ccc(F)c(C(F)(F)F)c3)n2)c1 [Compound 5],D (D denotes an activity range from 3.0 till 4.5)
4,Fc1cccc(-c2nc(Nc3cccc(C(F)(F)F)c3)sc2Br)c1 [Compound 6],C (C denotes an activity range from 2.0 till 3.0)
5,Fc1cccc(-c2nc(Nc3cccc(C(F)(F)F)c3)sc2F)c1 [Compound 7],C (C denotes an activity range from 2.0 till 3.0)
6,COc1ccc(-c2csc(Nc3cccc(Cl)c3Cl)n2)c(OC)c1 [Compound 8],C (C denotes an activity range from 2.0 till 3.0)
7,Fc1ccc(Nc2nc(-c3cnc4ccccn34)cs2)cc1C(F)(F)F [Compound 9],C (C denotes an activity range from 2.0 till 3.0)
8,Nc1cncc(-c2csc(Nc3ccc(F)c(C(F)(F)F)c3)n2)c1 [Compound 10],A (A denotes an activity range from 1.1 till 1.5)
9,"NC(=O)Cc1sc(Nc2cccc(C(F)(F)F)c2)nc1-c1ccc(Cl)cc1Cl [Compound 18, 2-[4-(2,4-Dichloro-phenyl)-2-(3-trifluoromethyl-phenylamino)-thiazol-5-yl]-acetamide]",B (B denotes an activity range from 1.5 till 2.0)
10,"N#CCc1sc(Nc2cccc(C(F)(F)F)c2)nc1-c1ccc(Cl)cc1Cl [Compound 23, [4-(2,4-Dichloro-phenyl)-2-(3-trifluoromethyl-phenylamino)-thiazol-5-yl]-acetonitrile]",D (D denotes an activity range from 3.0 till 4.5)
11,"OCc1sc(Nc2cccc(C(F)(F)F)c2)nc1-c1ccc(Cl)cc1Cl [Compound 31, [4-(2,4-Dichloro-phenyl)-2-(3-trifluoromethyl-phenylamino)-thiazol-5-yl]-methanol]",B (B denotes an activity range from 1.5 till 2.0)
12,CC(=O)NCc1sc(Nc2ccc(F)c(C(F)(F)F)c2)nc1-c1cccnc1 [Compound 32],C (C denotes an activity range from 2.0 till 3.0)
13,COc1ccc(OC)c(-c2csc(Nc3cc(F)ccc3C)n2)c1 [Compound 33],D (D denotes an activity range from 3.0 till 4.5)
14,COc1ccc(OC)c(-c2csc(Nc3cccc4[nH]ncc34)n2)c1 [Compound 34],C (C denotes an activity range from 2.0 till 3.0)
15,COc1ccc(-c2csc(Nc3cccc4[nH]ncc34)n2)c(OC)c1 [Compound 35],C (C denotes an activity range from 2.0 till 3.0)
16,COc1ccc(OC)c(-c2csc(Nc3ccc(Cl)cc3Cl)n2)c1 [Compound 36],C (C denotes an activity range from 2.0 till 3.0)
17,Clc1ccc(Nc2nc(-c3ccccc3Cl)cs2)c(Cl)c1 [Compound 37],C (C denotes an activity range from 2.0 till 3.0)
18,COc1ccc(-c2csc(Nc3ccccc3OC)n2)c(OC)c1 [Compound 38],D (D denotes an activity range from 3.0 till 4.5)
19,COc1ccc(OC)c(-c2csc(Nc3cccc(Cl)c3Cl)n2)c1 [Compound 39],C (C denotes an activity range from 2.0 till 3.0)
20,COc1ccc(-c2csc(Nc3cc(F)ccc3C)n2)c(OC)c1 [Compound 40],C (C denotes an activity range from 2.0 till 3.0)
21,COc1ccc(-c2csc(Nc3ccc(Cl)cc3Cl)n2)c(OC)c1 [Compound 41],A (A denotes an activity range from 1.1 till 1.5)
22,COc1ccccc1Nc1nc(-c2ccccc2Cl)cs1 [Compound 42],B (B denotes an activity range from 1.5 till 2.0)
23,COc1ccc(OC)c(-c2csc(Nc3ccccc3Cl)n2)c1 [Compound 43],B (B denotes an activity range from 1.5 till 2.0)
24,Fc1ccc(Nc2nc(-c3cnc4sccn34)cs2)cc1C(F)(F)F [Compound 44],C (C denotes an activity range from 2.0 till 3.0)
25,Brc1ccc(Nc2nc(-c3cnc4ccccn34)cs2)cn1 [Compound 45],D (D denotes an activity range from 3.0 till 4.5)
26,c1ccn2c(-c3csc(Nc4ccc5c(c4)CCO5)n3)cnc2c1 [Compound 46],C (C denotes an activity range from 2.0 till 3.0)

row,Compound,Activity Range
1,FC(F)(F)c1cncc(Nc2nc(-c3cnc4ccccn34)cs2)c1 [Compound 47],C (C denotes an activity range from 2.0 till 3.0)
2,CSc1ccc(Nc2nc(-c3cnc4ccccn34)cs2)cn1 [Compound 49],E (E denotes an efficacy from at least 4.5)
3,COc1ccc(Nc2nc(-c3cnc4ccccn34)cs2)c(OC)c1 [Compound 50],D (D denotes an activity range from 3.0 till 4.5)
4,Cc1cccc(Nc2nc(-c3cnc4ccccn34)cs2)c1 [Compound 51],C (C denotes an activity range from 2.0 till 3.0)
5,CSc1cccc(Nc2nc(-c3cnc4ccccn34)cs2)c1 [Compound 52],C (C denotes an activity range from 2.0 till 3.0)
6,Clc1ccc(Nc2nc(-c3cnc4ccccn34)cs2)cc1 [Compound 53],D (D denotes an activity range from 3.0 till 4.5)
7,FC(F)(F)c1cc(Nc2nc(-c3cnc4ccccn34)cs2)ccc1Cl [Compound 54],A (A denotes an activity range from 1.1 till 1.5)
8,COc1ccc(Nc2nc(-c3cnc4ccccn34)cs2)cc1OC [Compound 55],B (B denotes an activity range from 1.5 till 2.0)
9,FC(F)(F)c1cccc(Nc2nc(-c3cnc4ccccn34)cs2)c1 [Compound 56],C (C denotes an activity range from 2.0 till 3.0)
10,Brc1ccc(Nc2nc(-c3cnc4ccccn34)cs2)cc1 [Compound 58],C (C denotes an activity range from 2.0 till 3.0)
11,Cc1cccc(Nc2nc(-c3cnc4sccn34)cs2)c1 [Compound 59],B (B denotes an activity range from 1.5 till 2.0)
12,c1cn2c(-c3csc(Nc4ccc5c(c4)CCO5)n3)cnc2s1 [Compound 60],B (B denotes an activity range from 1.5 till 2.0)
13,Clc1cccc(Nc2nc(-c3cnc4sccn34)cs2)c1 [Compound 61],C (C denotes an activity range from 2.0 till 3.0)
14,Brc1ccc(Nc2nc(-c3cccnc3)cs2)cn1 [Compound 64],D (D denotes an activity range from 3.0 till 4.5)
15,FC(F)(F)c1ccc(Nc2nc(-c3cccnc3)cs2)cn1 [Compound 65],C (C denotes an activity range from 2.0 till 3.0)
16,Cc1ccc(Nc2nc(-c3cccnc3)cs2)cn1 [Compound 66],D (D denotes an activity range from 3.0 till 4.5)
17,Cc1cncc(-c2csc(Nc3cccc(Cl)c3Cl)n2)c1 [Compound 67],C (C denotes an activity range from 2.0 till 3.0)
18,Cc1ccc(-c2csc(Nc3cccc(C(F)(F)F)c3)n2)cn1 [Compound 68],E (E denotes an efficacy from at least 4.5)
19,N#Cc1ccc(Nc2nc(-c3cnc4ccccn34)cs2)cc1 [Compound 69],D (D denotes an activity range from 3.0 till 4.5)
20,COc1ccc(Nc2nc(-c3cnc4ccccn34)cs2)cc1 [Compound 70],D (D denotes an activity range from 3.0 till 4.5)
21,FC(F)(F)c1cccc(Nc2nc(-c3cnc4ccccn34)cs2)c1 [Compound 71],B (B denotes an activity range from 1.5 till 2.0)
22,FC(F)(F)c1cccc(Nc2nc(-c3cncnc3)cs2)c1 [Compound 73],C (C denotes an activity range from 2.0 till 3.0)
23,FC(F)(F)c1cccc(Nc2nc(-c3ccoc3)cs2)c1 [Compound 74],B (B denotes an activity range from 1.5 till 2.0)
24,Clc1ccc(Nc2nc(-c3cnc4cnccn34)cs2)cc1 [Compound 75],C (C denotes an activity range from 2.0 till 3.0)
25,Cc1cccc(Nc2nc(-c3cccnc3)cs2)c1 [Compound 76],C (C denotes an activity range from 2.0 till 3.0)
26,Cc1ccc(Nc2nc(-c3cccnc3)cs2)cc1 [Compound 77],C (C denotes an activity range from 2.0 till 3.0)
